PubChem BioAssay AID330 (DTP/NCI, 2004)
Toxic doses and inconclusive results are not listed.

Test system: P388 leukemia ip, CD2F1 mice, survival T/C
Experiment: NCI In Vivo Anticancer Drug Screen. Data for tumor model P388 Leukemia (intraperitoneal) in CD2F1 (CDF1) mice
Details: endpoint: median survival time, higher = longer survival
In short: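 Mice carrying the transplanted tumor received test compound or vehicle. Survival was recorded in each group, and the value is the treated-group measurement divided by that of the vehicle-treated control group.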

[1] = dose: 12.5 mg/kg/injection, schedule: Q04DX003 (ip), vehicle: saline with Tween-80

With `CC[N+](CC)(CC)CC` the T/C (dose: 3.13 mg/kg/injection, schedule: Q04DX003 (ip), vehicle: saline with Tween-80) was 100 % of control and the T/C [1] was 118 % of control.
`CS/C(=C1/C(=O)N(c2ccccc2)N=C1c1ccccc1)N1CC1` was tested, and the T/C (dose: 100.0 mg/kg/injection, schedule: Q04DX003 (ip), vehicle: Klucel (hydroxypropylcellulose) (HPC)) was 98 % of control, the T/C (dose: 200.0 mg/kg/injection, schedule: Q04DX003 (ip), vehicle: Klucel (hydroxypropylcellulose) (HPC)) was 94 % of control and the T/C (dose: 400.0 mg/kg/injection, schedule: Q04DX003 (ip), vehicle: Klucel (hydroxypropylcellulose) (HPC)) was 95 % of control.
For `O=NN(CCCl)C(=O)Nc1ccccc1`, the T/C (dose: 0.5 mg/kg/injection, schedule: Q04DX003 (ip), vehicle: saline with Tween-80) was 200 % of control, the T/C (dose: 1.25 mg/kg/injection, schedule: Q04DX003 (ip), vehicle: saline with Tween-80) was 150 % of control and the T/C (dose: 2.5 mg/kg/injection, schedule: Q04DX003 (ip), vehicle: saline with Tween-80) was 179 % of control. The T/C (dose: 5.0 mg/kg/injection, schedule: Q04DX003 (ip), vehicle: saline with Tween-80) was 233 % of control, the T/C (dose: 6.25 mg/kg/injection, schedule: Q01DX009 (ip), vehicle: saline) was 227 % of control and the T/C (dose: 12.5 mg/kg/injection, schedule: Q01DX009 (ip), vehicle: saline) was 118 % of control. For the same molecule, the T/C [1] was 250 % of control, the T/C (dose: 25.0 mg/kg/injection, schedule: Q01DX009 (ip), vehicle: saline) was 95 % of control and the T/C (dose: 25.0 mg/kg/injection, schedule: Q04DX003 (ip), vehicle: saline with Tween-80) was 91 % of control.
For `[Cl][Ge]([c]1ccccc1)[c]1ccccc1.c1cc[c]([GeH][c]2ccccc2)cc1`, the T/C (dose: 50.0 mg/kg/injection, schedule: Q01DX005 (ip), vehicle: Klucel (hydroxypropylcellulose) (HPC)) was 93 % of control, the T/C (dose: 100.0 mg/kg/injection, schedule: Q01DX005 (ip), vehicle: Klucel (hydroxypropylcellulose) (HPC)) was 100 % of control and the T/C (dose: 200.0 mg/kg/injection, schedule: Q01DX005 (ip), vehicle: Klucel (hydroxypropylcellulose) (HPC)) was 103 % of control.
For `Cn1c(Cl)c(C=O)c(=O)n(C)c1=O`, the T/C (dose: 100.0 mg/kg/injection, schedule: Q04DX003 (ip), vehicle: saline with Tween-80) was 104 % of control and the T/C (dose: 200.0 mg/kg/injection, schedule: Q04DX003 (ip), vehicle: saline with Tween-80) was 96 % of control.
In the case of `Nc1ccc(-c2c3ccccc3nc3cc(N)ccc23)cc1`, the T/C (dose: 50.0 mg/kg/injection, schedule: Q01DX005 (ip), vehicle: saline) is reported as 118 % of control and the T/C (dose: 100.0 mg/kg/injection, schedule: Q01DX005 (ip), vehicle: saline) is reported as 115 % of control.
